Data set [1] deals with foreskin fibroblast (FF) cells. As to the kind of experiment: Cell viability (MTT) assay, foreskin fibroblast. In kind it is cell-based, human. Conditions: 72 hrs (FIG. 5S). Here is the method:
(§1) 2,000 indicated cells were seeded in each well of 96-well plates for MTT assays to monitor cell viability at indicated time periods using a method adapted from https://www.thermofisher.com/us/en/home/references/protocols/cell-culture/mtt-assay-protocol/vybrant-mtt-cell-proliferation-assay-kit.html. Briefly, at indicated time points post-cell seeding, 10 μL MTT solution was added into each well and incubated in the culture incubator (37° C. with 5% CO2) for 4 hrs. Then medium was removed and 100 μL DMSO was added into each well to dissolve the formazan crystal and incubated for 10 min at 37° C. After thorough mixing, absorbance at 540 nm was measured using the BioTek Cytation 5 Cell Imaging reader.

The subject of data set [2] is FLI1. As to the kind of experiment: Immunoblot of FLI1 proteins in normal control cells. In kind it is cell-based, human. As to conditions: HUVEC and FF cells, doses of 7Ai for 3 days. Here is the method: (§2) Cells were lysed in EBC buffer (50 mM Tris pH 7.5, 120 mM NaCl, 0.5% NP-40) or Triton X-100 buffer (50 mM Tris pH 7.5, 150 mM NaCl, 1% Triton X-100) supplemented with protease inhibitors (Complete Mini, Roche) and phosphatase inhibitors (phosphatase inhibitor cocktail set I and II, Calbiochem). The protein concentrations of whole cell lysates were measured by NanoDrop OneC using the Bio-Rad protein assay reagent as described previously. Equal amounts of whole cell lysates were resolved by SDS-PAGE and immunoblotted with indicated antibodies. For immunoprecipitations analysis, unless specified, 1000 μg lysates were incubated with the indicated antibody (1-2 μg) for 3-4 hr at 4° C. followed by 1 hr incubation with 10 μL Protein A magnetic beads (New England Biolabs). Or 1000 μg lysates containing tagged molecules were incubated with agarose beads coupled antibodies for the specific tag for 3-4 hr at 4° C. For endogenous IPs, incubation of cell lysates with antibodies was extended to overnight. The recovered immuno-complexes were washed five times with NETN buffer (20 mM Tris, pH 8.0, 100 mM NaCl, 1 mM EDTA and 0.5% NP-40) before being resolved by SDS-PAGE and immunoblotted with indicated antibodies.
Background: A western blot detects proteins with antibodies after separation by electrophoresis.

In data set [3] the test system is EWS894 cells. As to the kind of experiment: Cell viability (MTT) assay, EWS894. In kind it is cell-based, human. As to conditions: EWS894, 3-day treatment. Here is the method:
as §1

Data set [4] has as its system A673 cells. Nature of the data set: 2D colony formation assay, A673. In kind it is cell-based, human. As to conditions: A673, 2-week treatment. How it is done:
(§3) Indicated cells were seeded into 6-well plates (300 or 600 cells/well) or 6 cm dishes (500 or 1,000 cells/dish) and cultured in 37° C. incubator with 5% C02 for ˜14 days (as indicated in figure legends) until formation of visible colonies. Colonies were washed with 1×PBS and fixed with 10% acetic acid/10% methanol for 30 min, stained with 20% acidic acid/10% Methanol with 0.1% crystal violet until colonies were visibly stained. Colonies were then washed by tap water and air-dried. Colony numbers were manually counted. At least two independent experiments were performed to generate the error bars.

The target in data set [5] is T1, OTUD7A (Homo sapiens, UniProt Q8TE49).
T1 construct: endogenous in cells; host or cells: A673 and SK-N-MC
Nature of the data set: Immunoblot of OTUD7A protein levels in Ewing cells. In kind it is cell-based. Conditions: A673 and SK-N-MC cells, 10 μM, 12 hrs. How it is done:
as §2
Each compound was dissolved in DMSO with a concentration of 10 mM. […]

Data set [6] deals with Ewing sarcoma cell. As to the kind of experiment: Ewing sarcoma cell growth in vitro (effective dose). In kind it is cell-based, human. Here is the method: as §1
Data set [7] relates to A673 cells xenografted tumor. As to the kind of experiment: Mouse xenograft assay with A673 cells. In kind it is in vivo, nude mice. How it is done:
All mouse work has been reviewed and approved by UNC Institutional Animal Care and Use Committee under IACUC #19-031. Mouse xenograft assays were performed as described previously. Briefly, for mouse xenograft experiments, 2.5×10^6 parental or EWS-FLI1-3A knockin A673 cells were mixed 1:1 with matrigel (Corning 354230) and injected into the flank of indicated female nude mice (NCRNU-M-M from UNC Animal Facility, 4 weeks old). Six days post-injection, when the tumors were established, 2% sucrose with or without 1 μg/mL tetracycline was supplied in water for mice and refreshed every 5 days. Tumor size was measured every two days with a digital caliper, and the tumor volume was determined with the formula: L×W^2×0.52, where L is the longest diameter and W is the shortest diameter. After 22 days, mice were sacrificed, and tumors were dissected and weighed.
For 7Ai treatment in nude mice, 2.5×10^6 A673 cells were mixed 1:1 with matrigel (Corning 354230) and injected into the flank of indicated female nude mice (NCRNU-M-M from UNC Animal Facility, 4 weeks old). Seven days post-injection, when the tumors were established, 100 μL 7Ai (25 mg/kg, dissolved in ethanol followed by the addition of sunflower oil and then sonicated at 4° C. in a water bath sonicator until 7Ai was completely dissolved) was given to mice through IP injections and this treatment was repeated every 3 days.
Freshly dissected xenografted tumors are immediately fixed in 10% formalin for 2 days before transferring to 80% ethanol for one day to prepare tumor blocks. 4-μm sections were cut from each of the tumor blocks by UNC TPL facility and used for IHC study. IHC was performed as described previously. Normal human tissue TMA was purchased from UNC TPL facility. Human Ewing sarcoma tissues were obtained post-mortem and fixed in 10% formalin and embedded in paraffin.

The target of data set [8] is T2, OTUD7A-mediated deubiquitination of EWS-FLI1 (Homo sapiens, UniProt Q8TE49).
T2 construct: Myc-Flag; expressed in transfected cells; host or cells: HEK293T
As to the kind of experiment: Ni-NTA pulldown ubiquitination assay in HEK293T cells. In kind it is cell-based. As to conditions: compound added 10 hrs prior to cell collection (FIG. 5C). How it is done:
as §2

Data set [9] deals with A673^3A cells. Nature of the data set: Cell viability (MTT) assay, A673^3A knockin. As to conditions: 3-day treatment (FIG. 5I). The format is cell-based, human. Here is the method: Parental A673 cells were splitted into 24-well plates and transfected with sgRNA against EWS-FLI1 together with EWS-FLI1-3A-ssoDNA following protocols as described. 1-day post-transfection, cells were selected with 1 μg/ml puromycin for 3 days. Surviving cells were counted and each single cell was seeded into 96-well plates. Each single clone grown up in 96-well plates was amplified and one copy was used for genomic DNA extraction, followed by PCR and BpmI digestion to screen for potential knockin clones. BpmI negative clones are selected and sequenced to verify the knockin at the DNA level. 3 isogenic knockin clones were selected and saved.
as §1

The subject of data set [10] is MHH-ES-1 cells. Nature of the data set: 2D colony formation assay, MHH-ES-1. The format is cell-based, human. Conditions: MHH-ES-1, 2-week treatment (FIG. 5J). Here is the method: as §3

T1 sequence (Q8TE49 whole entry): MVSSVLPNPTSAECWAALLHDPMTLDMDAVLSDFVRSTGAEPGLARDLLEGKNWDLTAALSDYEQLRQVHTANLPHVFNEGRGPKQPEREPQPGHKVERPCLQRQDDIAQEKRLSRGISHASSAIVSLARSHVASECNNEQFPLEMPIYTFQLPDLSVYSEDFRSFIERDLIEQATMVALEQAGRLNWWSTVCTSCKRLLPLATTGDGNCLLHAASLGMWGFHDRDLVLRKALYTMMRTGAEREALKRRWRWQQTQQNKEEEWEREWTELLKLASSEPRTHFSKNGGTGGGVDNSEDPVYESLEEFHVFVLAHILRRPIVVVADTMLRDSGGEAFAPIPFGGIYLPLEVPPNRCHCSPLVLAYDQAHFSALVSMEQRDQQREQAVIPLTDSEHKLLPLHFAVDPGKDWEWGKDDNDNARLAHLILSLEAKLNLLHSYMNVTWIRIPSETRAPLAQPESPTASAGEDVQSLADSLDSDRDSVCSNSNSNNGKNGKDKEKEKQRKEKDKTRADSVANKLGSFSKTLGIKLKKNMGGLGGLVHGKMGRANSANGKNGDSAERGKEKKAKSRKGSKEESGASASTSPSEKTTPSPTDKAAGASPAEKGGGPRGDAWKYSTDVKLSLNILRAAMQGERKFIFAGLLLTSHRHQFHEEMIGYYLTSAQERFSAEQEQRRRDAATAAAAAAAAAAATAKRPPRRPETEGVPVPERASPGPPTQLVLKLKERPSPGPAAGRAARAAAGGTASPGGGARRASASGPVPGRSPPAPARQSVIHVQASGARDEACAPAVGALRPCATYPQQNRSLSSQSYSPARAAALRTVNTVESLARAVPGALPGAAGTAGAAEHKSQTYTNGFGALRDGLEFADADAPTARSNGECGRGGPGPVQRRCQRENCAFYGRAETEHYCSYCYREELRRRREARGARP
T2 sequence (Q8TE49 whole entry): as above

For the compound `Cn1nccc1-c1cc(-c2ccnn2C)n2nc(C(=O)Nc3cnn(Cc4c(Cl)cccc4Cl)c3)cc2n1` [7Ai], the results for the “proliferation (cell viability)” value in data set [1], in data set [3] and in [9] were “neglectable effects”, “reduced proliferation” and “not observed”, respectively. Also, in data set [2], the FLI1 proteins result was “minimal effects on FLI1 proteins”. In addition, the colony formation ability entry in [4] and in data set [10] was “reduced colony formation ability” each time. Besides, the OTUD7A protein levels result in [5] is given as “without affecting OTUD7A protein levels”. The “effective dose in retarding Ewing sarcoma cell growth in vitro” value in data set [6] was “about 10 μM”. In addition, the tumor volume entry in data set [7] (A673 xenograft in nude mice, 25 mg/kg IP, vs vehicle (FIG. 5P)) is on record as “significantly reduced tumor volume”. In data set [7] (A673 xenograft in nude mice, 25 mg/kg IP, vs vehicle (FIGS. 5Q-5R)), the “tumor growth (dissected tumors, weight)” value was “significantly reduced”. Also, the “EWS-FLI1 protein in treated tumors” value in [7] (A673 xenograft tumors, IHC) is “reduced EWS-FLI1 protein”. For the same compound, the “apoptosis in treated tumors (cleaved-caspase3 staining)” value in data set [7] (A673 xenograft tumors, IHC) is on record as “increased apoptosis”. For the same compound, the “cell proliferation in treated tumors (Ki67 staining)” value in data set [7] (A673 xenograft tumors, IHC) is on record as “reduced”. In data set [7] (nude mice, 25 mg/kg IP, 3-week treatment period), the body weight entry is “did not significantly affect body weight”. In data set [8], the “OTUD7A-mediated deubiquitination of EWS-FLI1 in cells” value was “efficiently blocked OTUD7A-mediated deubiquitination of EWS-FLI1”.

(Values after US20240197738A1, “COMPOUND 7AI IN TREATING EWING SARCOMA BY INHIBITING OTUD7A” (The University of North Carolina at Chapel Hill, priority 2021, published 2024).)
